Measurements taken from patent publication US9902736B2, “1-oxo/acylation-14-acylated oridonin derivative, preparation method therefor and application thereof” (HANGZHOU BENSHENG PHARMACEUTICAL CO., LTD., priority 2012, dated 2018).
≈ marks a conversion by molar mass, not a printed value.

These compounds were tested on RPMI 8226 (assay: Multiple myeloma cell growth inhibition, MTT, 72 h). Settings: Homo sapiens.
Type: cell-based
Description: Multiple myeloma cell lines: RPMI8226 (multiple myeloma), purchased from Fuxiang Bio-tech Co. Ltd., Shanghai, China.
(§1) 6000 well-growing cells were obtained and inoculated into wells of a 96-well cell culture plate. […] On the next day, the 1-oxo/acylated-14-acylated oridonin derivatives of different concentrations were added and mixed uniformly. The plate was placed in a carbon dioxide cell incubator (5% CO2) at 37° C. and incubated for 72 hours. Then the viable cell concentration was determined by MTT method.

Row | IC50 [µg/mL] | IC90 [µg/mL] | Structure (SMILES)
1 | 1.48 (≈ 2.25 µM) | 3.83 (≈ 5.81 µM) | C=C1C(=O)[C@]23[C@H](OC(=O)C4CCN(S(=O)(=O)c5ccccc5[N+](=O)[O-])CC4)[C@H]1CC[C@H]2[C@@]12CO[C@@]3(O)[C@@H](O)[C@@H]1C(C)(C)CCC2=O [BS-OR-034]

Each compound was assayed on NB4 (assay: Leukemia cell growth inhibition, MTT, 72 h). Settings: Homo sapiens, NB-4; 72 h, MTT.
Type: cell-based, human
Excerpt: (§2) Leukemia cell lines: leukemia cell lines: K562/adr (drug-resistant, chronic myeloid leukemia, CML), NB4 (acute promyelocytic leukemia, AML), Kasumi-1 (acute myeloid leukemia M2 type, AML-M2), Jurkat (acute lymphoblastic leukemia, ALL), all of which were donated by Cancer Research Institute of Zhejiang University, China; and H9 (acute lymphoblastic leukemia, ALL), which was purchased from China Center for Type Culture Collection.
as §1, with “6000 well-growing leukemia cells were” for “6000 well-growing cells were”, “C. and was incubated for” for “C. and incubated for”

Row | IC50 [µg/mL] | IC90 [µg/mL] | Structure (SMILES)
2 | 0.5 (≈ 0.759 µM) | 1.94 (≈ 2.95 µM) | C=C1C(=O)[C@]23[C@H](OC(=O)C4CCN(S(=O)(=O)c5ccccc5[N+](=O)[O-])CC4)[C@H]1CC[C@H]2[C@@]12CO[C@@]3(O)[C@@H](O)[C@@H]1C(C)(C)CCC2=O [BS-OR-034]

Each compound was assayed on H9 (assay: Leukemia cell growth inhibition, MTT, 72 h). Settings: Homo sapiens, H9; 72 h, MTT.
Type: cell-based, human
Excerpt: as §2
as §1, with “6000 well-growing leukemia cells were” for “6000 well-growing cells were”, “C. and was incubated for” for “C. and incubated for”

Row | IC50 [µg/mL] | IC90 [µg/mL] | Structure (SMILES)
3 | 0.78 (≈ 1.18 µM) | 1.73 (≈ 2.63 µM) | C=C1C(=O)[C@]23[C@H](OC(=O)C4CCN(S(=O)(=O)c5ccccc5[N+](=O)[O-])CC4)[C@H]1CC[C@H]2[C@@]12CO[C@@]3(O)[C@@H](O)[C@@H]1C(C)(C)CCC2=O [BS-OR-034]

These compounds were tested on Jurkat (assay: Leukemia cell growth inhibition, MTT, 72 h). Settings: Homo sapiens, Jurkat; 72 h, MTT.
Type: cell-based, human
Excerpt: as §2
as §1, with “6000 well-growing leukemia cells were” for “6000 well-growing cells were”, “C. and was incubated for” for “C. and incubated for”

Row | IC50 [µg/mL] | IC90 [µg/mL] | Structure (SMILES)
4 | 1.32 (≈ 2 µM) | 5.36 (≈ 8.14 µM) | C=C1C(=O)[C@]23[C@H](OC(=O)C4CCN(S(=O)(=O)c5ccccc5[N+](=O)[O-])CC4)[C@H]1CC[C@H]2[C@@]12CO[C@@]3(O)[C@@H](O)[C@@H]1C(C)(C)CCC2=O [BS-OR-034]

Each compound was assayed on MGC-803 (assay: Solid tumor cell growth inhibition, MTT, 72 h). Settings: Homo sapiens, MGC-803; 72 h, MTT.
Type: cell-based, human
Description: (§3) 6000 well-growing human solid tumor cells were obtained and inoculated into wells of a 96-well cell culture plate. The culture medium was DMEM High Glucose cell culture medium containing 10% fetal bovine serum. The plate was placed in a carbon dioxide cell incubator (5% CO2) at 37° C. and incubated for 24 hours. After added with 1-oxo/acylated-14-acylated oridonin derivatives of different concentration and mixed uniformly, the plate was placed in a carbon dioxide cell incubator (5% CO2) at 37° C. and incubated for 72 hours. Then the viable cell concentration was determined by MTT method.

Row | IC50 [µg/mL] | IC90 [µg/mL] | Structure (SMILES)
5 | 2.89 (≈ 4.39 µM) | 8.83 (≈ 13.4 µM) | C=C1C(=O)[C@]23[C@H](OC(=O)C4CCN(S(=O)(=O)c5ccccc5[N+](=O)[O-])CC4)[C@H]1CC[C@H]2[C@@]12CO[C@@]3(O)[C@@H](O)[C@@H]1C(C)(C)CCC2=O [BS-OR-034]

Each compound was assayed on Hep-2 (assay: Solid tumor cell growth inhibition, MTT, 72 h). Settings: Homo sapiens, HEp-2; 72 h, MTT.
Type: cell-based, human
Description: as §3

Row | IC50 [µg/mL] | IC90 [µg/mL] | Structure (SMILES)
6 | 3.97 (≈ 6.03 µM) | 13.3 (≈ 20.3 µM) | C=C1C(=O)[C@]23[C@H](OC(=O)C4CCN(S(=O)(=O)c5ccccc5[N+](=O)[O-])CC4)[C@H]1CC[C@H]2[C@@]12CO[C@@]3(O)[C@@H](O)[C@@H]1C(C)(C)CCC2=O [BS-OR-034]

Each compound was assayed on Hela (assay: Solid tumor cell growth inhibition, MTT, 72 h). Settings: Homo sapiens, HeLa; 72 h, MTT.
Type: cell-based, human
Description: as §3

Row | IC50 [µg/mL] | IC90 [µg/mL] | Structure (SMILES)
7 | 2.98 (≈ 4.52 µM) | 7.76 (≈ 11.8 µM) | C=C1C(=O)[C@]23[C@H](OC(=O)C4CCN(S(=O)(=O)c5ccccc5[N+](=O)[O-])CC4)[C@H]1CC[C@H]2[C@@]12CO[C@@]3(O)[C@@H](O)[C@@H]1C(C)(C)CCC2=O [BS-OR-034]

The compounds below were run on CNE (assay: Solid tumor cell growth inhibition, MTT, 72 h). Settings: Homo sapiens, CNE; 72 h, MTT.
Type: cell-based, human
Description: as §3

Row | IC50 [µg/mL] | IC90 [µg/mL] | Structure (SMILES)
8 | 3.73 (≈ 5.66 µM) | 10.2 (≈ 15.6 µM) | C=C1C(=O)[C@]23[C@H](OC(=O)C4CCN(S(=O)(=O)c5ccccc5[N+](=O)[O-])CC4)[C@H]1CC[C@H]2[C@@]12CO[C@@]3(O)[C@@H](O)[C@@H]1C(C)(C)CCC2=O [BS-OR-034]

The compounds below were run on MG-63 (assay: Solid tumor cell growth inhibition, MTT, 72 h). Settings: Homo sapiens.
Type: cell-based
Description: as §3

Row | IC50 [µg/mL] | IC90 [µg/mL] | Structure (SMILES)
9 | 1.28 (≈ 1.94 µM) | 3.22 (≈ 4.89 µM) | C=C1C(=O)[C@]23[C@H](OC(=O)C4CCN(S(=O)(=O)c5ccccc5[N+](=O)[O-])CC4)[C@H]1CC[C@H]2[C@@]12CO[C@@]3(O)[C@@H](O)[C@@H]1C(C)(C)CCC2=O [BS-OR-034]

The compounds below were run on PANC-1 (assay: Solid tumor cell growth inhibition, MTT, 72 h). Settings: Homo sapiens.
Type: cell-based
Description: as §3

Row | IC50 [µg/mL] | IC90 [µg/mL] | Structure (SMILES)
10 | 4.99 (≈ 7.58 µM) | 11.9 (≈ 18.1 µM) | C=C1C(=O)[C@]23[C@H](OC(=O)C4CCN(S(=O)(=O)c5ccccc5[N+](=O)[O-])CC4)[C@H]1CC[C@H]2[C@@]12CO[C@@]3(O)[C@@H](O)[C@@H]1C(C)(C)CCC2=O [BS-OR-034]
